Results from US11319300B2, “Polyfluoro-substituted aromatic heterocyclic derivative, pharmaceutical composition containing same, and applications thereof” (ZHEJIANG UNIVERSITY, priority 2017, dated 2022).
Counter-ions that a name gives are not always drawn. Marks after values point to notes of the source that are not given here.

Assays:
HCT-116 = assay: Tumour cell proliferation inhibition, MTT assay, HCT-116; type: cell-based, human
Procedure: (§1) Compound AZD5363 (NCT02208375, NCT02208375, NCT01625286), which have entered the clinical phase II study, was used as a positive control, and the compound was assayed against common tumour cell lines (human ovarian cancer cell line OVCAR-8 and human colon cancer cell line HCT-116) by MTT assay, at the same time, the akt1 enzyme inhibitory activity (IC50) was evaluated using a commercial Akt1 kit.
1) The pharmacological test method for the tumour cell proliferation inhibiting activity of the compound of the present invention was as follows:
The first was the determination of in vitro tumour growth inhibitory activity and the preliminary structure-activity relationship study, and different solid tumour cell lines were used to determine the in vitro antitumour activity of the synthesized compounds.
Experimental materials: cell lines: human ovarian cancer cells (OVCAR8), colon adenocarcinoma cells (HCT-116),
Medium: OVCAR8: RPMI 1640+fetal calf serum
Drug preparation method: dissolving the drug in DMSO to make a 50 mM of stock solution, and diluting it to a certain ratio to obtain 5 different concentrations.
Tumour Cells being Cultured In Vitro:
The selected tumour cells were incubated in a, 5% of CO2 cell incubator at 37° C., and passaged until the cell density was 70 to 90% (the adherent cells were passaged with Duck's EDTA) and used for subsequent experiments.
The compound was dissolved in dimethyl sulfoxide (DMSO), diluted, and tumour cells were seeded into 4000 cells/200 μL/well in 96-well plates, and 1 μL of compound was added to each well to a final concentration of 50 μM, 10 μM, 2 μM, and 0.4 μM. 0.08 μM were incubated in a, 5% of CO2 cell incubator at 37° C. for 72 hours with DMSO (1%) as a blank control.
The calculation formula of the cell inhibition rate is: cell inhibition rate %=(control group OD value−drug group OD value)/control cell OD value×100%, and the half inhibition concentration (IC50) was determined by the Bliss method.

MCF-7 = assay: Tumour cell proliferation inhibition, MTT assay, MCF-7; type: cell-based, human
HGC27 = assay: Tumour cell proliferation inhibition, MTT assay, HGC27; type: cell-based, human
hERG potassium channel = molecular target: T1, hERG potassium channel (Homo sapiens, UniProt Q12809); assay: hERG potassium channel inhibition, manual whole-cell patch clamp in CHO hERG cells; type: cell-based; details: 3 μM, CHO hERG cells, patch clamp
T1 construct: host or cells: CHO
Procedure: A Sixty-Third Embodiment: hERG Potassium Channel Inhibition Activity Experiment
The cells used in this assay were CHO cell lines transfected with hERG cDNA and stably expressing the hERG channel (supplied by Sophion Bioscience, Denmark). The cells were cultured in medium containing the following components (all from Invitrogen): Ham's F12 medium, 10% (v/v) inactivated fetal bovine serum, 100 μg/ml hygromycin B, and 100 μg/ml Geneticin. 2.1.2CHO hERG cells were grown in a Petri dish containing the above culture solution, and cultured in an incubator containing 5% of CO2 at 37° C. 24 to 48 hours prior to electrophysiological experiments, CHO hERG cells were transferred to circular glass slides placed in petri dishes and grown under the same culture and culture conditions as above. The density of CHO hERG cells on each circular slide requires that most cells achieve independent, individual requirements.
2. Compound Treatment and Dilution
To obtain the IC50 of the compound, we selecte the following concentrations (30, 10, 3, 1, 0.3, and 0.1 μM) for testing. Prior to testing, the […] were first diluted to 10, 3, 1, 0.3, and 0.1 mM stock solution in gradual dilution with DMSO and then diluted to the final μM test concentration with extracellular fluid. The final concentration of DMSO in each of the other compound solutions was 0.1% except that the DMSO concentration in the 30 μM compound test solution was 0.3%. The positive control Cisapride (cishabili) was tested at a concentration of 0.1 μM. All compound solutions were sonicated and shaken for 5 to 10 minutes to ensure complete dissolution of the compound.
3. Electrophysiological Recording System and Data Analysis
This experiment uses a manual patch clamp system (HEKA EPC-10 signal amplifier and digital conversion system, purchased from HEKA Electronics, Germany) for the recording of whole cell currents. Round slide with CHO hERG cells on the surface was placed in an electrophysiology recording cell under an inverted microscope. The extracellular fluid was continuously perfused in the recording tank (about 1 ml per minute). The experimental procedure uses conventional whole-cell patch clamp current recording techniques. Unless otherwise stated, the experiments were carried out at regular room temperature (˜25° C.). The cells were clamped at a voltage of −80 mV. The cell clamp voltage was depolarized to +20 mV to activate the hERG potassium channel, and after 5 seconds it was clamped to −50 mV to eliminate inactivation and generate tail current. The tail current peak was used as the value of the hERG current magnitude. After the hERG potassium current recorded in the above step was stabilized under the continuous extracellular fluid perfusion in the recording tank, the drug to be tested can be superimposed and filled until the inhibitory effect of the drug on the hERG current reaches a steady state. Generally, the recent three consecutive current recording lines were recombined as a criterion for judging whether or not the state is stable. After reaching a steady state, extracellular fluid perfusion rinse until hERG current returns to the size before adding drug. One cell can test one or more drugs, or multiple concentrations of the same drug, but need to be flushed with extracellular fluid between different drugs. Cisapride (cisapride, purchased from Sigma) was used in the experiment as a positive control to ensure that the cells used were of normal quality. The test data was analysed by HEKA Patchmaster, Microsoft Excel and data analysis software provided by Graphpad Prism.

786-O = assay: Tumour cell proliferation inhibition, MTT assay, 786-O; type: cell-based, human
AKT1/PKBα = molecular target: T2, AKT1/PKBα (Homo sapiens, UniProt P31749); assay: Akt1 enzyme inhibitory activity, AKT1/PKBα KinEASE FP Fluorescein Green Assay; type: biochemical; details: fluorescence polarization kit assay; read-out: Akt1 IC50 (grade)
T2 construct: purchased
Procedure: as §1
2) Test method for the inhibitory activity of the compound of the present invention against Akt1 enzyme:
The AKT1/PKBα KinEASE™ FP Fluorescein Green Assay (Kinase Green Fluorescence Detection System) was used to detect the inhibitory activity of the compound on AKT1/PKBα.
Fluorescence polarization detection protein kinase B employs the principle of a competitive reaction: a fluorescently labeled phosphorylated tracer and an unlabeled phosphorylated product produced by the reaction of protein kinase B will compete with the anti-serine antibody for binding. In a reaction mixture […], when a part of the fluorescent tracer binds to the antibody, it causes a higher polarization value. However, in the reaction solution mixture containing the phosphorylated product, less tracer binds to the antibody (the fluorescent tracer was replaced from the antibody) and the emitted signal was depolarized. Therefore, the change in polarization was directly related to the activity of protein kinase B in the reaction.
The compound of the present invention and the positive control AZD5363 were dissolved in dimethyl sulfoxide (DMSO) and diluted to a concentration of 50 μM. At room temperature, 0.25 μl of the compound sample and the positive control at a concentration of 50 μM were taken and added to the 384-well plate, and three parallel wells were set for each sample, and then 10 μl of STK Substrate 3, Working Solution, 5 μl AKT1/PKBα Working Solution, 10 μl ATP Working Solution were added to each sample well plate with vibrating gently and shaking for a few minutes. The reaction starts after 10 μl of ATP Working Solution was added to the well, and the reaction was timed at room temperature for 1 hour. After one hour, 5 μl of STK Stop Mix and 5 μl of STK Antibody Mix were added to each well respectively to stop the reaction. After the addition completes, it was allowed to stand at room temperature for four hours, and the polarization value of the sample was detected by the fluorescence polarization of the microplate reader (it was effective to detect its signal within 24 hours), and the inhibition rate of the compound was calculated by the polarization value, and then IC50 was calculated.
Four sets of controls were set in the experiment, namely Buffer Control Wells, Tracer Control Wells, No Enzyme Wells, and a blank dimethyl sulfoxide control. The resulting data was used to calculate the inhibition rate.
The activity of the compound was divided into three grades according to the size of the IC50 of the Akt inhibitory activity: “+++”, 1 nM<IC50<10 nM; “++”, 10 nM<IC50<50 nM; “+”, 50 nM<IC50.

CEM-C1 = assay: Tumour cell proliferation inhibition, MTT assay, CEM-C1; type: cell-based, human
[1] = test system: human gastric cancer HGC27 nude mice xenografts; assay: In vivo antitumour activity, human gastric cancer HGC27 nude mice xenografts; details: HGC27 xenograft, 50 mg/kg intragastric once a day
Procedure: A Sixty-Fifth Embodiment: In Vivo Antitumour Activity of Compounds
1) Establishment of a nude mouse xenograft model: 1×10^7 test tumour cells were injected into the armpit of nude mice, after three generations, HGC27 mouse tumour blocks were dissected and placed in a glass dish containing physiological saline, after the necrotic area was removed by incision, the tumour mass was cut into 1-2 mm^3 and inserted into the left axilla of the nude mouse with a trocar.
2) Animal grouping and drug delivery arrangements: after the tumour grows to an average volume of 100-300 mm^3, 20 mice were randomly grouped according to the tumour volume, and the above test animals were given the corresponding test substances by intragastric administration at a dose of 10 mL/kg with once a day.
3) Data measurement and statistics: The tumour volume was weighed and measured twice and dosing period was 21 days. On the 22nd day, after the body weight was weighed and the tumour volume was measured, the nude mice were sacrificed and the tumours were weighed to calculate the relative tumour volume (RTV), relative tumour growth rate (T/C) and tumour inhibition percentage (IR) for statistical testing. The calculation formula was as follows: (a) TV (tumour volume)=½×a×b^2, wherein a and b represent the length and width of the tumour respectively, (b) RTV (relative tumour volume)=Vt/V0, Where V0 is the tumour volume measured at the time of group administration (i.e. d0), Vt is the tumour volume at each measurement, (c) T/C (%)=TRTV/CRTV×100%, wherein TRTV is the RTV of treatment group, CRTV is the RTV of the solvent control group, (d) IR (%)=(1−TWt/TWc)×100%, wherein TWt is the tumour weight of the treatment group, and TWc is the tumour weight of the solvent control group.

T1 sequence (Q12809 whole entry): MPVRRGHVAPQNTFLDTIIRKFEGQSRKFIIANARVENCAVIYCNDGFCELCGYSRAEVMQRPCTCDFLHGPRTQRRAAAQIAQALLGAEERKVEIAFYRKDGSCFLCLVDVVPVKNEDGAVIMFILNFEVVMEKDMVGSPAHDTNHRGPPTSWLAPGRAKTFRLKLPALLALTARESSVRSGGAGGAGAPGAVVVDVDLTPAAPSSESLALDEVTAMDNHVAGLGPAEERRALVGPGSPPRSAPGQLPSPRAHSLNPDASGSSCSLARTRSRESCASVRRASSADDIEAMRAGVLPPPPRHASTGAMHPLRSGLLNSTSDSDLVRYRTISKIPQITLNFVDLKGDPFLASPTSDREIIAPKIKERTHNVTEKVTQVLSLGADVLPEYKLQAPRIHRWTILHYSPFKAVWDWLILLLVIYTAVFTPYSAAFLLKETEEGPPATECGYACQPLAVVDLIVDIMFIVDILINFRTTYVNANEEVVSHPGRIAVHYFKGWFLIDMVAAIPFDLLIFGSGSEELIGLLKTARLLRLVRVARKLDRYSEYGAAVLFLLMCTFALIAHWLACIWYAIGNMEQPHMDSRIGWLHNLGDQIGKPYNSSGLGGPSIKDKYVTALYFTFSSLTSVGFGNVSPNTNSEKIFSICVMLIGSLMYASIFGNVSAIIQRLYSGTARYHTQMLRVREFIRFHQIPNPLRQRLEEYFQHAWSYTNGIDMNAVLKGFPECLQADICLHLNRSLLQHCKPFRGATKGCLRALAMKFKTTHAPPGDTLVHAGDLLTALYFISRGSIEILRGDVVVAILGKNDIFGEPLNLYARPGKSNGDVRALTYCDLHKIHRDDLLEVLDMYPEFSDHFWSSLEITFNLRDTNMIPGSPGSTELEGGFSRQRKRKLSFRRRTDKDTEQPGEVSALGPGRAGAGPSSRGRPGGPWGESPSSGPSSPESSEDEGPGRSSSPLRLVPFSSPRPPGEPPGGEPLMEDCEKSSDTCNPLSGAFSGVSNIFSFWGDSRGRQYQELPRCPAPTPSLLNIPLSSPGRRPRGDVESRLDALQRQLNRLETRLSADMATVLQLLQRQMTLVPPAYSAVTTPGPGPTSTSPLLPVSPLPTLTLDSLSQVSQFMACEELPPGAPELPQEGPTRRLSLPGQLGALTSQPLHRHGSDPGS
T2 sequence (P31749 whole entry): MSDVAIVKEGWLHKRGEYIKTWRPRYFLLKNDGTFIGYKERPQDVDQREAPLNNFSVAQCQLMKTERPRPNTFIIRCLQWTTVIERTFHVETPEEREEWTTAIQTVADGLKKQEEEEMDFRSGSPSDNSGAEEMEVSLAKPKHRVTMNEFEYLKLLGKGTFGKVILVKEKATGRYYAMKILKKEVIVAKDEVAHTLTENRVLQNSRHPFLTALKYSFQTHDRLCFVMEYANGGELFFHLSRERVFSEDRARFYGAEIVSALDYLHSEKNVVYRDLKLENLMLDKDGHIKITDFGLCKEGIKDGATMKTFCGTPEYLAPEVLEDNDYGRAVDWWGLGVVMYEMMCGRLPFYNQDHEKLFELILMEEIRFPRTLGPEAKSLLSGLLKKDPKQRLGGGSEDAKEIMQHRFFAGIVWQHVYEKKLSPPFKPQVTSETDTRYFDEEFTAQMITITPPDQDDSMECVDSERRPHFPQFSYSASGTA

IC50 (HCT-116; Homo sapiens, HCT-116, 72 h) | IC50 (MCF-7; Homo sapiens, MCF7, 72 h) | IC50 (HGC27; Homo sapiens, HGC-27, 72 h) | IC50 (786-O; Homo sapiens, 786-0, 72 h) | IC50 (AKT1/PKBα) | IC50 (CEM-C1; Homo sapiens, CEM/C1, 72 h) | SMILES | other results
990 nM | 1180 nM | 30 nM | 550 nM | 1 to 10 nM | 20 nM | Cn1nccc1-c1cc(F)c(C(=O)N[C@@H]2CNCC[C@H]2c2ccc(F)c(F)c2)cc1F [VII-18] | hERG (Inhibition rate at 3 μM concentration) (hERG potassium channel): 17.6%
– | – | – | – | – | – | Cn1ncc(Cl)c1-c1cc(C(=O)N[C@H]2CNCC[C@@H]2c2ccc(F)c(F)c2)oc1Cl (racemic) [reference compound] | hERG (Inhibition rate at 3 μM concentration) (hERG potassium channel): 62%
2390 nM | 2840 nM | 60 nM | 990 nM | 10 to 50 nM | 90 nM | Cn1ncc(F)c1-c1ccc(C(=O)N[C@@H]2CNCC[C@H]2c2ccc(F)c(F)c2)c(F)c1 [VII-7] | –
10500 nM | 10600 nM | 190 nM | 2060 nM | 10 to 50 nM | 620 nM | Cn1nccc1-c1ccc(C(=O)N[C@@H]2CNCC[C@H]2c2ccc(F)c(F)c2)cc1 [drawing 111, reference compound] | –
1520 nM | 1850 nM | 20 nM | 1650 nM | 1 to 10 nM | 120 nM | Cn1nccc1-c1ccc(C(=O)N[C@@H]2CNCC[C@H]2c2cc(F)c(F)c(F)c2)c(F)c1 [VII-8] | hERG (Inhibition rate at 3 μM concentration) (hERG potassium channel): 11.8%
6150 nM | 5130 nM | 180 nM | 2990 nM | 1 to 10 nM | 440 nM | Cn1ncc(Cl)c1-c1ccc(C(=O)N[C@@H]2CNCC[C@H]2c2ccc(Cl)cc2)c(C(F)(F)F)c1 [reference compound] | –
– | – | – | – | – | – | Cn1nccc1-c1ccc(C(=O)N[C@@H]2CNCC[C@H]2c2ccc(F)c(F)c2)cc1 [drawing 115, reference compound] | RTV [1]: 22.60 ± 12.41; T/C(%) [1]: 53.75%; Tumour volume D1 ([1]; D1 (start)): 216 ± 98 mm^3; Tumour volume D22 ([1]; D22): 1650 ± 720* mm^3

SMILES | IC50 (HCT-116; Homo sapiens, HCT-116, 72 h) | IC50 (MCF-7; Homo sapiens, MCF7, 72 h) | IC50 (HGC27; Homo sapiens, HGC-27, 72 h) | IC50 (786-O; Homo sapiens, 786-0, 72 h) | IC50 (AKT1/PKBα) | IC50 (CEM-C1; Homo sapiens, CEM/C1, 72 h) | other results
Cn1nccc1-c1ccc(C(=O)N[C@@H]2CNCC[C@H]2c2ccc(F)c(F)c2)c(F)c1.O=C(O)C[C@H](O)C(=O)O [VII-30, L-malate] | – | – | – | 550 nM | 1 to 10 nM | 80 nM | IC50 (HCT-116; 72 hours, L-malate): 1990 nM; IC50 (MCF-7; 72 hours, L-malate): 1580 nM; IC50 (HGC27; 72 hours, L-malate): 30 nM
Cn1nccc1-c1ccc(C(=O)N[C@@H]2CNCC[C@H]2c2ccc(F)c(F)c2)c(F)c1 (racemic) [VII-32] | 980 nM | 1980 nM | 60 nM | 910 nM | 1 to 10 nM | 70 nM | –
Cn1nccc1-c1ccc(C(=O)N[C@@H]2CNCC[C@H]2c2ccc(F)c(F)c2)c(F)c1 [VII-37, citrate] | – | – | – | – | 1 to 10 nM | – | IC50 (HCT-116; 72 hours, citrate): 1060 nM; IC50 (MCF-7; 72 hours, citrate): 1360 nM; IC50 (HGC27; 72 hours, citrate): 50 nM; IC50 (786-O; 72 hours, citrate): 670 nM; IC50 (CEM-C1; 72 hours, citrate): 110 nM
Cn1nccc1-c1ccc(C(=O)N[C@@H]2CNCC[C@H]2c2ccc(F)c(F)c2)c(F)c1 [VII-34, D-tartrate] | – | – | – | – | 1 to 10 nM | – | IC50 (HCT-116; 72 hours, D-tartrate): 2150 nM; IC50 (MCF-7; 72 hours, D-tartrate): 3090 nM; IC50 (HGC27; 72 hours, D-tartrate): 30 nM; IC50 (786-O; 72 hours, D-tartrate): 1060 nM; IC50 (CEM-C1; 72 hours, D-tartrate): 130 nM
